Measurements taken from patent US20200325116A1, “SOLID FORMS OF A PLASMA KALLIKREIN INHIBITOR AND SALTS THEREOF” (KALVISTA PHARMACEUTICALS LIMITED, priority 2017, published 2020).

Tests used:
rats = details: systemic administration; cited from earlier work
[1] = Pharmacokinetics after a single oral dose in rats; assay type: in vivo; details: male, Sprague-Dawley, rat, 10% DMSO/10% cremophor/80% SWFI, plasma
Protocol: Pharmacokinetic studies of the compounds in Table 4 were performed to assess the pharmacokinetics following a single oral dose in male Sprague-Dawley rats. […] Following dosing, blood samples were collected over a period of […]. Sample times were 5, 15 and 30 minutes then 1, 2, 4, 6, 8 and 12 hours. Following collection, blood samples were centrifuged and the plasma fraction analysed for concentration of test compound by LCMS.

trypsin = assay: Enzyme selectivity, trypsin; assay type: biochemical, human; details: substrate at Km concentration
Protocol: Human serine protease enzymes plasmin, thrombin and trypsin were assayed for enzymatic activity using an appropriate fluorogenic substrate. Protease activity was measured by monitoring the accumulation of liberated fluorescence from the substrate over 5 minutes. The linear rate of fluorescence increase per minute was expressed as percentage (%) activity. The Km for the cleavage of each substrate was determined by standard transformation of the Michaelis-Menten equation.

[2] = In vitro permeability, Caco-2 model for oral absorption; assay type: in vitro ADME; details: human, Caco-2; 50 μM, apical to basolateral, 1 hour at 37° C.
Protocol: (§1) In vitro permeability was determined using the Caco-2 model for oral absorption. The methodology was adapted from standard published methods (Wang Z, Hop C. E., Leung K. H. and Pang J. (2000) J Mass Spectrom 35(1); 71-76). […] For the assay, 50 μM test compound is added to the apical side of the inserts and incubated for 1 hour at 37° C. on a shaking platform (120 rpm). Apical to basolateral transport was determined by measuring the test article in both compartments by LCMS following the 1 hour incubation. The integrity of the Caco-2 monolayers was confirmed by two methods, (i) comparison of pre- and post-experiment transepithelial electrical resistance (TEER) and, (ii) assessment of Lucifer Yellow flux.

Caco-2 monolayers = assay: as above; assay type: in vitro ADME
Protocol: as §1

Human Factor XIIa = target: T1, Human Factor XIIa (Homo sapiens, UniProt P00748); assay: Determination of the IC50 for FXIIa; assay type: biochemical; details: 25° C., substrate H-DPro-Phe-Arg-AFC
T1 construct: purchased Enzyme Research Laboratories
T1 sequence (P00748 373-615 limits assumed, other chains not shown): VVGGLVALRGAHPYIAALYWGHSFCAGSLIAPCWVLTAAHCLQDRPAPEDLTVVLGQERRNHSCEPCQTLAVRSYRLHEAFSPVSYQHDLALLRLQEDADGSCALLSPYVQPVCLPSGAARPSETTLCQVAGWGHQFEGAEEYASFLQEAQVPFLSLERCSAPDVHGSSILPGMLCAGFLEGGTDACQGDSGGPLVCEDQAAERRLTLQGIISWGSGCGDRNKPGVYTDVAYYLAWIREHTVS
Protocol: Factor XIIa inhibitory activity in vitro was determined using standard published methods (see e.g. Shori et al., Biochem. Pharmacol., 1992, 43, 1209; Baeriswyl et al., ACS Chem. Biol., 2015, 10 (8) 1861; Bouckaert et al., European Journal of Medicinal Chemistry 110 (2016) 181). Human Factor XIIa (Enzyme Research Laboratories) was incubated at 25° C. with the fluorogenic substrate H-DPro-Phe-Arg-AFC and various concentrations of the test compound. Residual enzyme activity (initial rate of reaction) was determined by measuring the […] and the IC50 value for the test compound was determined.

Human KLK1 = target: T2, Human KLK1 (Homo sapiens, UniProt P06870); assay: Determination of the IC50 for KLK1; assay type: biochemical; details: 25° C., substrate H-DVal-Leu-Arg-AFC
T2 construct: purchased Callbiochem
T2 sequence (P06870 25-262): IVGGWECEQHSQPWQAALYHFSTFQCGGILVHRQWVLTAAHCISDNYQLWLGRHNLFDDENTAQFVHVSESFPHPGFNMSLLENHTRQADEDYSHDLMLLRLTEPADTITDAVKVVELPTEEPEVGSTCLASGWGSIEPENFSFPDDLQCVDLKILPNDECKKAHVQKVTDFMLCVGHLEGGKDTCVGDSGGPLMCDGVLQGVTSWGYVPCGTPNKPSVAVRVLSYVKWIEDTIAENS
Protocol: KLK1 inhibitory activity in vitro was determined using standard published methods (see e.g. Johansen et al., Int. J. Tiss. Reac. 1986, 8, 185; Shori et al., Biochem. Pharmacol., 1992, 43, 1209; Stürzebecher et al., Biol. Chem. Hoppe-Seyler, 1992, 373, 1025). Human KLK1 (Callbiochem) was incubated at 25° C. with the fluorogenic substrate H-DVal-Leu-Arg-AFC and various concentrations of the test compound. Residual enzyme activity (initial rate of reaction) was determined by measuring the change in optical absorbance at 410 nm and the IC50 value for the test compound was determined.

Human FXIa = target: T3, Human FXIa (Homo sapiens, UniProt P03951); assay: Determination of the % inhibition / IC50 for FXIa; assay type: biochemical; details: 25° C., substrate Z-Gly-Pro-Arg-AFC
T3 construct: purchased Enzyme Research Laboratories
T3 sequence (P03951 388-625 limits assumed): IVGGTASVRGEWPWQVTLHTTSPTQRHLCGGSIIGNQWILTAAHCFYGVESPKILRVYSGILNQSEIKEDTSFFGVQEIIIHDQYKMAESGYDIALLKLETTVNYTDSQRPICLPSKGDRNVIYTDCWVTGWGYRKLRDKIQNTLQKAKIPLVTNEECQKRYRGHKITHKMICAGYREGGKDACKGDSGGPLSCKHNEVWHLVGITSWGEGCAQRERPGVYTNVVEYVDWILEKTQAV
T3 sequence (P03951 19-387 partner limits assumed): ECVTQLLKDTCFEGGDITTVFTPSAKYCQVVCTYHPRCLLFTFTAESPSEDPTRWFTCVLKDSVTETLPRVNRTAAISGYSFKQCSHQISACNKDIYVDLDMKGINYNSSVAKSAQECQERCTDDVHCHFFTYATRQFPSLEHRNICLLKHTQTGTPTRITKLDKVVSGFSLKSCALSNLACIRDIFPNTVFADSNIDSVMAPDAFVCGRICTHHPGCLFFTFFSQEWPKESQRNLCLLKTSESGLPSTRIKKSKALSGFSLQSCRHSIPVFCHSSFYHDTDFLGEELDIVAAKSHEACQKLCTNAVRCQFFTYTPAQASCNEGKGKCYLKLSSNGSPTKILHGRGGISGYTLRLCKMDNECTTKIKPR
Protocol: Residual enzyme activity (initial rate of reaction) was determined by measuring the change in optical absorbance at 410 nm and the IC50 value for the test compound was determined.

[3] = tested on: LPS-induced disseminated intravascular coagulation; details: cited from earlier work
[4] = tested on: intrinsic pathway of coagulation; details: in vitro; cited from earlier work
blood = details: contacting blood with the substance; cited from earlier work
postoperative bleeding = details: in vivo; cited from earlier work

N=C(N)c1ccc(CNC(=O)c2cnn(Cc3ccccc3)c2)cc1 [ASP-440]
hematoma expansion (rats): reduced

COc1ccnc(CNC(=O)c2cn(Cc3ccc(Cn4ccccc4=O)cc3)nc2C(F)(F)F)c1F [Compound of Formula A, N-[(3-fluoro-4-methoxypyridin-2-yl)methyl]-1-({4-[(2-oxopyridin-1-yl)methyl]phenyl}methyl)-3-(trifluoromethyl)pyrazole-4-carboxamide]
Cmax ([1]; po 2.2 mg/kg): 1800 ng/mL | Tmax ([1]; po 2.2 mg/kg): 0.5 h | IC50 (trypsin): > 40 µM | Papp A→B at 1 h, 50 μM [2]: 17 ×10⁻⁶ cm/s | pharmacokinetic properties, in particular in vitro permeability (in words) (Caco-2 monolayers): surprisingly good

COCc1nn(Cc2ccc(Cn3ccccc3=O)cc2)cc1C(=O)NCc1nccc(OC)c1F [Example 41 of WO2016/083820, N-[(3-fluoro-4-methoxypyridin-2-yl)methyl]-3-(methoxymethyl)-1-({4-[(2-oxopyridin-1-yl)methyl]phenyl}methyl)pyrazole-4-carboxamide]
Cmax ([1]; po 10.5 mg/kg): 1530 ng/mL | Tmax ([1]; po 10.5 mg/kg): 3 h | IC50 (Human Factor XIIa): > 40 µM | IC50 (Human KLK1): > 40 µM | IC50 (Human FXIa): > 40 µM

Cl.NCC1CCC(C(=O)N[C@@H](Cc2ccccc2)C(=O)Nc2ccc(CC(=O)O)cc2)CC1 (stereo partly drawn) [PKSI-527]
decrease in platelet count and fibrinogen level, increase in FDP level [3]: significantly suppressed

Ecallantide
contact activated induced coagulation [4]: delay | activated clotting time (ACT) (blood): increase

aprotinin
postoperative bleeding (postoperative bleeding): decrease
